Measured values published in the NIST ThermoML archive (doi:10.1016/j.jct.2011.10.023).

Settings: Liquid, Vibrating tube method

CCCCCCCCCCCO [1-undecanol]
mass density [kg/m3]
Settings	298.15 K	308.15 K	318.15 K	328.15 K	338.15 K	348.15 K	358.15 K
100 kPa	827.7	820.9	814.1	807.4	800.5	793.3	786
1000 kPa	828.2	821.5	814.7	808	801.1	793.8	786.8
5000 kPa	830.7	824	817.4	810.8	803.9	797.1	790
10000 kPa	833.6	827.1	820.6	814.1	807.3	800.8	793.9
15000 kPa	836.4	830	823.7	817.3	810.6	804.3	797.6
20000 kPa	839.2	832.9	826.6	820.4	813.8	807.6	801.1
25000 kPa	841.8	835.6	829.5	823.3	816.9	810.8	804.4
30000 kPa	844.4	838.3	832.3	826.2	819.9	813.9	807.7
35000 kPa	846.9	840.9	834.8	829	822.8	816.9	810.8
40000 kPa	849.4	843.4	837.6	831.7	825.6	819.9	813.9
45000 kPa	851.8	845.9	840.1	834.4	828.4	822.7	816.6
50000 kPa	854.2	848.3	842.6	837	831	825.5	819.6
55000 kPa	856.5	850.7	845.1	839.5	833.6	828.1	822.4
60000 kPa	858.7	852.9	847.3	841.8	836	830.7	824.9

CCCCO [butan-1-ol]
mass density [kg/m3]
Settings	278.15 K	288.15 K	298.15 K	308.15 K	318.15 K	328.15 K	338.15 K	348.15 K	358.15 K
100 kPa	820.9	813.5	805.8	798	790.3	782.3	774	765.6	756.6
1000 kPa	821.6	814.1	806.6	798.8	791.1	783.1	774.9	766.3	757.7
5000 kPa	824.4	817	809.6	802	794.5	786.7	778.7	770.5	761.7
10000 kPa	827.7	820.5	813.3	805.9	798.5	790.9	783.2	775.3	767
15000 kPa	830.9	823.9	816.8	809.5	802.4	795	787.4	779.8	771.7
20000 kPa	834	827.2	820.2	813	805.6	798.8	791.4	784	776.2
25000 kPa	837	830.3	823.5	816.4	809.5	802.4	795.3	788	780.4
30000 kPa	839.9	833.2	826.6	819.7	812.9	806	799	791.8	784.4
35000 kPa	842.7	836.2	829.6	822.8	816.1	809.4	802.5	795.6	788.3
40000 kPa	845.4	839	832.6	825.9	819.3	812.7	805.9	799.1	792
45000 kPa	848.1	841.7	835.4	828.8	822.4	815.8	809.2	802.5	795.5
50000 kPa	850.7	844.4	838.2	831.7	825.3	818.9	812.4	805.8	799
55000 kPa	853.2	846.8	840.9	834.5	828.2	821.8	815.4	809	802.3
60000 kPa	855.6	849.4	843.3	837	830.9	824.6	818.4	811.9	805.3

CCCCCCCCCCO [decan-1-ol]
mass density [kg/m3]
Settings	288.15 K	298.15 K	308.15 K	318.15 K	328.15 K	338.15 K	348.15 K	358.15 K
100 kPa	832.3	825.5	818.7	811.9	805	798	790.9	783.6
1000 kPa	832.8	826	819.3	812.5	805.7	798.7	791.6	784.3
5000 kPa	835.2	828.5	821.9	815.3	808.5	801.7	794.8	787.6
10000 kPa	838	831.5	825	818.5	811.9	805.2	798.5	791.6
15000 kPa	840.8	834.4	828	821.7	815.2	808.7	802	795.3
20000 kPa	843.5	837.2	830.9	824.7	818.3	812	805.5	798.9
25000 kPa	846.1	839.8	833.7	827.6	821.4	815.1	808.8	802.3
30000 kPa	848.6	842.5	836.4	830.4	824.3	818.1	811.9	805.6
35000 kPa	851.1	845.1	839.1	833.2	827.1	821.1	815	808.8
40000 kPa	853.5	847.6	841.7	835.8	829.9	824	817.9	811.9
45000 kPa	855.9	850	844.2	838.5	832.6	826.7	820.8	814.8
50000 kPa	858.2	852.4	846.6	841	835.2	829.4	823.6	817.7
55000 kPa	860.4	854.7	849	843.4	837.7	832.1	826.4	820.5
60000 kPa	862.7	856.8	851.2	845.7	840.2	834.5	829	822.9
